Measured values reported in the supplement of paper PMC11061612.

Columns and labels:
[1] = system: HCC70 (Breast Carcinoma); assay: combination Emax (second highest fraction inhibited in the dose matrix, 72 h); higher = more inhibition; extreme values may be limits of the assay
Summary of the method: (§1)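 After 24 hours at 37°C and 5% CO2 in 1536-well plates, cells in DMEM/F12 or RPMI plus 10% FBS received two-drug dose matrices for 72 hours. Viability came from CellTiter-Glo 2.0 luminescence and was scaled as inhibition, anchored at 0 by vehicle wells and at 1 by blank wells. Combination Emax is taken as the second-highest inhibition in the matrix, and Bliss excess as the observed combination effect less EA + EB − EA·EB, with EA and EB the single-agent effects.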

[2] = system: CESS (Acute Myeloid Leukemia); assay: as above
Summary of the method: as §1

[3] = system: JHU-022 (Oral Cavity Carcinoma); assay: as above
Summary of the method: as §1

[4] = system: WM1552C (Melanoma); assay: as above
Summary of the method: as §1

[5] = system: 22RV1 (Prostate Carcinoma); assay: as above
Summary of the method: as §1

[6] = system: NCI-H1651 (Lung Adenocarcinoma); assay: as above
Summary of the method: as §1

[7] = system: NCI-H2228 (Lung Adenocarcinoma); assay: as above
Summary of the method: as §1

[8] = system: NCI-H2087 (Lung Adenocarcinoma); assay: as above
Summary of the method: as §1

[9] = system: A253 (Head and Neck Carcinoma); assay: as above
Summary of the method: as §1

[10] = system: JIMT-1 (Breast Carcinoma); assay: as above
Summary of the method: as §1

[11] = system: GCT (Other Solid Carcinomas); assay: as above
Summary of the method: as §1

[12] = system: Jurkat (T-Lymphoblastic Leukemia); assay: as above
Summary of the method: as §1

[13] = system: AU565 (Breast Carcinoma); assay: as above
Summary of the method: as §1

[14] = system: NB13 (Neuroblastoma); assay: as above
Summary of the method: as §1

[15] = system: CAL-27 (Oral Cavity Carcinoma); assay: as above
Summary of the method: as §1

[16] = system: SW620 (Colorectal Carcinoma); assay: Bliss excess, mean over the matrix (fraction); higher = more synergy
Summary of the method: as §1

[17] = system: huH-1 (Hepatocellular Carcinoma); assay: as above
Summary of the method: as §1

[18] = system: KYSE-140 (Esophageal Squamous Cell Carcinoma); assay: as above
Summary of the method: as §1

[19] = system: 769-P (Kidney Carcinoma); assay: as above
Summary of the method: as §1

[20] = system: SK-HEP-1 (Hepatocellular Carcinoma); assay: as above
Summary of the method: as §1
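Throughout, for Bliss excess, mean over the matrix: after 72 h of two-drug dosing.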

| SMILES | combination Emax [1] | combination Emax [2] | combination Emax [3] | combination Emax [4] | combination Emax [5] | combination Emax [6] | combination Emax [7] | combination Emax [8] | combination Emax [9] | combination Emax [10] | combination Emax [11] | combination Emax [12] | combination Emax [13] | combination Emax [14] | combination Emax [15] | Bliss excess [16] | Bliss excess [17] | Bliss excess [18] | Bliss excess [19] | Bliss excess [20] |
| --- | --- | --- | --- | --- | --- | --- | --- | --- | --- | --- | --- | --- | --- | --- | --- | --- | --- | --- | --- | --- |
| CC1(C)CCC(CN2CCN(c3ccc(C(=O)NS(=O)(=O)c4ccc(NCC5CCOCC5)c([N+](=O)[O-])c4)c(Oc4cnc5[nH]ccc5c4)c3)CC2)=C(c2ccc(Cl)cc2)C1 [Venetoclax] + Cc1cc2ncnn2cc1Nc1ncc2c(n1)n(C1CCOCC1)c(=O)n2C [AZD7648] (first compound max 1 µM, 7x7, partner max 10 µM) | 0.399 | 0.327 | 0.221 | 0.444 | 0.456 | 0.191 | 0.4 | 0.133 | 0.212 | 0.242 | 0.283 | 0.303 | 0.295 | 0.368 | 0.174 | -0.0452 | -0.0511 | -0.0044 | -0.0087 | -0.0387 |
| Cc1c2c(nn1C)CSCc1cc(n(C)n1)CSc1cc(c3ccccc3c1)OCCCc1c(C(=O)O)n(C)c3c-2c(Cl)ccc13 [AZD5991] + CCN(CCO)CCCOc1ccc2c(Nc3cc(CC(=O)Nc4cccc(F)c4)[nH]n3)ncnc2c1 [AZD2811] (first compound max 1 µM, 7x7, partner max 1 µM) | 0.935 | 0.578 | 0.273 | 0.824 | 0.399 | 0.356 | 0.296 | 0.191 | 0.896 | – | 0.416 | 0.919 | 1 | 0.615 | 0.974 | 0.0591 | 0.024 | 0.0169 | -0.0395 | 0.0084 |
| C=CCn1c(=O)c2cnc(Nc3ccc(N4CCN(C)CC4)cc3)nc2n1-c1cccc(C(C)(C)O)n1 [AZD1775] + C1CN(CCC1(C(=O)N[C@@H](CCO)C2=CC=C(C=C2)Cl)N)C3=NC=NC4=C3C=CN4 [Capivasertib] (first compound max 3 µM, partner max 3 µM) | 0.754 | 0.874 | 0.71 | 0.719 | 0.616 | 0.794 | 0.59 | 0.501 | 0.848 | 0.76 | 0.623 | 0.986 | 0.833 | – | 0.715 | -0.0402 | -0.0242 | -0.0859 | -0.0475 | 0.0958 |
| C[C@@H](Oc1cc(-c2cnn(C3CCNCC3)c2)cnc1N)c1c(Cl)ccc(F)c1Cl [Crizotinib] + Cn1cnc2c(F)c(Nc3ccc(Br)cc3Cl)c(C(=O)NOCCO)cc21 [Selumetinib] (first compound max 10 µM, 7x7, partner max 10 µM) | 0.448 | – | 0.496 | 0.864 | 0.59 | 0.0815 | – | 0.587 | – | – | – | – | – | 0.804 | – | 0.0065 | – | – | -0.0213 | -0.0968 |
| CC1(C)CCC(CN2CCN(c3ccc(C(=O)NS(=O)(=O)c4ccc(NCC5CCOCC5)c([N+](=O)[O-])c4)c(Oc4cnc5[nH]ccc5c4)c3)CC2)=C(c2ccc(Cl)cc2)C1 [Venetoclax] + CS(=O)(=O)CCNCc1ccc(-c2ccc3ncnc(Nc4ccc(OCc5cccc(F)c5)c(Cl)c4)c3c2)o1 [Lapatinib] (first compound max 1 µM, 7x7, partner max 10 µM) | 0.343 | – | 0.631 | 0.187 | 0.266 | 0.129 | – | 0.0976 | – | – | – | – | – | 0.43 | – | -0.0409 | – | – | 0.0871 | 0.0013 |
| Cc1nc(-c2cn3c(n2)-c2ccc(-c4cnn(C(C)(C)C(N)=O)c4)cc2OCC3)n(C(C)C)n1 [Taselisib] + O=C(Nc1ccc2[nH]nc(-c3ccncc3)c2c1)[C@@H]1CCN(CC(=O)N2CCN(c3ccc(-c4ncccn4)cc3)CC2)C1 [SCH772984] (first compound max 10 µM, 7x7, partner max 5 µM) | 0.943 | – | 0.769 | 0.813 | 0.702 | 0.24 | – | 0.71 | – | – | – | – | – | 0.424 | – | 0.0518 | – | – | 0.0852 | 0.0372 |
| C=CCn1c(=O)c2cnc(Nc3ccc(N4CCN(C)CC4)cc3)nc2n1-c1cccc(C(C)(C)O)n1 [AZD1775] + O=C(c1cc(Cc2n[nH]c(=O)c3ccccc23)ccc1F)N1CCN(C(=O)C2CC2)CC1 [Olaparib] (first compound max 1 µM, partner max 10 µM) | 0.56 | 0.916 | 0.432 | 0.486 | 0.323 | 0.736 | 0.592 | 0.493 | 0.35 | 0.558 | 0.501 | 0.842 | 0.449 | 0.935 | 0.525 | -0.0395 | -0.0118 | -0.0418 | -0.0578 | – |
| C[C@@H](Oc1cc(-c2cnn(C3CCNCC3)c2)cnc1N)c1c(Cl)ccc(F)c1Cl [Crizotinib] + CC1=C(C(=CC=C1)Cl)NC(=O)C2=CN=C(S2)NC3=CC(=NC(=N3)C)N4CCN(CC4)CCO [Dasatinib] (first compound max 10 µM, 7x7, partner max 2 µM) | 0.117 | – | 0.648 | 0.959 | 0.468 | 0.29 | – | 0.39 | – | – | – | – | – | 0.801 | – | 0.0171 | – | – | -0.0405 | -0.0098 |
